Measurements reported in ChEMBL document CHEMBL1201862, “PubChem BioAssay data set” (2004).
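Grown in 96-well plates, cells were treated for 48 hours with each compound at five concentrations. Insufficient inhibition: endpoint recorded as highest concentration tested. At the GI50, growth is halved.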 The source made the active and inactive calls. No stated cut-off is given here; in the data, active = GI50 up to about 1.1 µM and inactive = higher.

How the values were obtained:
Assay in all cases: NCI tumour cell line growth inhibition, 48 h
[1] = test system: M14
[2] = test system: SNB-19
[3] = test system: SN12C
[4] = test system: KM12
[5] = test system: OVCAR-5
[6] = test system: K562
[7] = test system: MDA-MB-231
[8] = test system: NCI-H226
[9] = test system: EKVX
[10] = test system: ACHN
[11] = test system: DU-145
[12] = test system: COLO 205
[13] = test system: CCRF-CEM
[14] = test system: RXF 393
[15] = test system: Hs-578T
[16] = test system: SK-OV-3
[17] = test system: SK-MEL-28
[18] = test system: T47D
[19] = test system: SF-539

Measured: GI50

N/C(=N\Nc1ccc(Cl)cc1)c1cnccn1
inactive: [1] 6.64 µM | [2] > 100 µM | [3] > 100 µM | [4] > 100 µM | [5] > 100 µM | [6] 3.85 µM | [7] > 100 µM | [8] 48.8 µM | [9] 81.7 µM | [10] > 100 µM | [11] > 100 µM | [12] 18 µM | [13] 28.6 µM | [14] > 100 µM | [15] > 100 µM | [16] > 100 µM | [17] 73.6 µM | [18] 13 µM

C=C(C)[C@H]1C2=CC(C)=C(O2)[C@@H](O)[C@H](C(=C)C)CCC2=C[C@H]1OC2=O [KALLOLIDE A]
inactive: [1] > 100 µM | [2] > 100 µM | [3] > 100 µM | [4] > 100 µM | [5] > 100 µM | [6] > 100 µM | [7] > 100 µM | [8] > 100 µM | [9] > 100 µM | [10] > 100 µM | [19] > 100 µM | [11] > 100 µM | [12] > 100 µM | [13] > 100 µM | [14] > 100 µM | [15] > 100 µM | [17] > 100 µM | [18] > 100 µM

COc1ccc(OC)c2nc3c(C(=O)NCCN(C)C)cccc3nc12
inactive: [1] 4.69 µM | [2] 6.76 µM | [3] 4.11 µM | [4] 4.2 µM | [5] 10.3 µM | [6] 3 µM | [7] 2.94 µM | [8] 4.66 µM | [9] 6.58 µM | [10] 1.98 µM | [19] 4.5 µM | [11] 5.21 µM | [12] 2.37 µM | [13] 2.29 µM | [14] 5.85 µM | [15] 5.89 µM | [17] 7.83 µM | [18] 14.1 µM

COc1cccc(CCn2c(N)c(C(=O)O)c3ccc([N+](=O)[O-])cc3c2=O)c1
inactive: [1] 45.3 µM | [2] 39.1 µM | [3] 21.8 µM | [5] 52.2 µM | [6] 67.8 µM | [7] 16.9 µM | [8] 44 µM | [9] 51.5 µM | [10] 33.7 µM | [11] 40.2 µM | [12] 20.7 µM | [13] > 100 µM | [14] 28.7 µM | [15] 33.2 µM | [16] 35.6 µM | [17] > 100 µM | [18] 29.3 µM

Cn1cnc([N+](=O)[O-])c1Sc1nc(N)nc2c1ncn2Cc1ccccc1
inactive: [1] 22.9 µM | [2] 42.7 µM | [3] 15.8 µM | [4] 30 µM | [5] 23.2 µM | [6] 20.5 µM | [7] 19.7 µM | [8] 23.9 µM | [9] 11.5 µM | [10] 15.3 µM | [11] 20.8 µM | [12] 16.2 µM | [13] 13.9 µM | [14] 19.5 µM | [15] 20.5 µM | [16] 24.5 µM | [17] 20.5 µM | [18] 13.8 µM

O=c1[nH]cnc2c1ncn2[C@@H]1C[C@H]1CO
inactive: [1] > 100 µM | [2] > 100 µM | [3] > 100 µM | [4] > 100 µM | [5] > 100 µM | [6] > 100 µM | [7] > 100 µM | [8] > 100 µM | [9] > 100 µM | [10] > 100 µM | [19] > 100 µM | [11] > 100 µM | [12] > 100 µM | [13] > 100 µM | [14] > 100 µM | [15] > 100 µM | [17] > 100 µM | [18] > 100 µM
